Drawing on ChEMBL document CHEMBL2417374, “Resistance by allostery: a novel perspective for eg5-targeted drug design” (J Med Chem, 2013), this text covers inhibition for one compound.

Each structure is given as a SMILES string. The source made the active and inactive calls. The calls are words filed in the database; no cut-off is given here.

This test concerns T1, Kinesin-like protein KIF11 (Homo sapiens), P52732 [D130V,A133D].
T1 sequence (whole entry): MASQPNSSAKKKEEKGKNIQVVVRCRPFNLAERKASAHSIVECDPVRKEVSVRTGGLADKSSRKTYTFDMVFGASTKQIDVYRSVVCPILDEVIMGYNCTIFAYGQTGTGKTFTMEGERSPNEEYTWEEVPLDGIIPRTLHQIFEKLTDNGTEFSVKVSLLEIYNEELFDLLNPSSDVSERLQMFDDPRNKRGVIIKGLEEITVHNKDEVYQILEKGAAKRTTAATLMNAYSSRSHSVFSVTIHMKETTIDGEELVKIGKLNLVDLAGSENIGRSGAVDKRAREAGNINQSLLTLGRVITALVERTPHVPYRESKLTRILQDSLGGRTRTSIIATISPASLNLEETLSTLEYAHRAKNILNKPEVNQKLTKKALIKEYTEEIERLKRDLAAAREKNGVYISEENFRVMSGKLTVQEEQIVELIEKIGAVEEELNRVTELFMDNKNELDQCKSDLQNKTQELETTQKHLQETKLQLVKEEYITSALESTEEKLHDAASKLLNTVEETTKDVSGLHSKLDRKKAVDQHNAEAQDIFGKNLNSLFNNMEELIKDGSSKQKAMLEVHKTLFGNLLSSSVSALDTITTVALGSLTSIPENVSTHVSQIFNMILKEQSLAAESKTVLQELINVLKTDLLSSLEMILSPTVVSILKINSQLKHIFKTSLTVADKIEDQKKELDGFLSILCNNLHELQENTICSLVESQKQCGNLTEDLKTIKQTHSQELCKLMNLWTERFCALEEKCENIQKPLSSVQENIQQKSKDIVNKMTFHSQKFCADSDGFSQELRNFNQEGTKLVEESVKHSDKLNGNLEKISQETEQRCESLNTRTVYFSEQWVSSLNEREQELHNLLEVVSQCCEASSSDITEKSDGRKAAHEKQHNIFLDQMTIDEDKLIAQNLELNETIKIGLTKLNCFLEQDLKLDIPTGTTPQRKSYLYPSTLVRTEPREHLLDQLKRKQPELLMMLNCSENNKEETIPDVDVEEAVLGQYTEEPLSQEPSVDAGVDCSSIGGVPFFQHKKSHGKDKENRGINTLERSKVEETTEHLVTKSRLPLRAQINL
The experiment in a line: Partial inhibition of MT-stimulated ATPase activity of Eg5 D130V/A133D (unknown origin).

For `Cc1ccc(C(=O)N(CCCN)[C@@H](c2oc3cc(Cl)ccc3c(=O)c2Cc2ccccc2)C(C)C)cc1`, the inhibition entry is “Active”.
